This note sets out measurements from ChEMBL document CHEMBL3507680, “University of Dundee, Gates Library screen for HepG2 cell viability”.

The data set is described as follows: Human HepG2 cell viability assay in 384 well format. Format: toxicity, cell-based. The arrangement: dose 125 nL, time 70.5 hour; concentration not given beside the values. Particulars: HepG2 cells, read-out: Inhibition.
Turning to `c1ccc(C2CCCN2Cc2nnnn2C2CC2)cc1` (centres undefined), the cytotoxicity at 70.5 h was -2.74%.

As to `CCCN(CCC)C(=O)CN(C)Cc1cnc(C)s1`, the cytotoxicity at 70.5 h came out at 3.46%.

For the compound `CCn1nc2c(cc1=O)CN(c1ncnc3ccsc13)CC2`, the cytotoxicity at 70.5 h is -7.93%.

For `COc1ccc(Br)cc1S(=O)(=O)N(C)Cc1ccc(N(C)C)cc1`, the cytotoxicity at 70.5 h was -3.08%.

As to `CCN(CC)C(C(=O)NCc1ccc(N2CCCC2)nc1)C(C)C` (centres undefined), the cytotoxicity at 70.5 h was found to be 2.85%.

Take `Cc1cc(C[C@@H]2COC[C@H]2NCc2ccc(C(F)(F)F)cc2)on1`: the cytotoxicity at 70.5 h is -5.79%.

`Cn1ccc(C(=O)N2CCC3(CC2)CC(Nc2cnccn2)CO3)n1` (centres undefined): the cytotoxicity at 70.5 h was -7%.

With `COCCN(C)Cc1cc(Cl)ccc1OCC(O)CN1CCCCCC1` (centres undefined), the cytotoxicity at 70.5 h was -11.6%.

As for `Cc1csc(N2CCCN(C(=O)c3c(C)oc(C)c3C)CC2)n1`, the cytotoxicity at 70.5 h is -1.91%.

Consider `CNC(=O)c1nc2c(s1)CCN(C(=O)c1ccc(OC)cc1)CC2`, for which the cytotoxicity at 70.5 h is -7.87%.

As for `O=C(O)c1cnc(-c2cccc3c2CCNC3)c(Cl)c1`, the cytotoxicity at 70.5 h is -11.1%.

`CC(C)CC(=O)N1CCC2(CC1)COCCN2Cc1ccc(F)cc1`: the cytotoxicity at 70.5 h is -11.1%.

With `CN(C)S(=O)(=O)N1C[C@H]2CCC[C@@]2(COCC2CCOCC2)C1`, the cytotoxicity at 70.5 h worked out at 9.65%.

With `c1ccc(-c2cnc(CNCC3CCCN3c3cccnn3)o2)cc1` (centres undefined), the cytotoxicity at 70.5 h was -5.15%.

Consider `Cn1cnc2c1C(COCC1CC1)CN(C(=O)c1cscn1)C2` (centres undefined), for which the cytotoxicity at 70.5 h was -5.14%.

As to `CN(C)C(=O)CCC[S+]([O-])Cc1ccc(F)c(F)c1` (centres undefined), the cytotoxicity at 70.5 h is 13.1%.

Take `O=C(NCc1cc2n(n1)CCCN(Cc1ccc(Cl)s1)C2)C1CCC1`: the cytotoxicity at 70.5 h is -10.1%.

As for `Cc1nccn1CCCN1CCCC(c2nccn2CC2CCC2)C1` (centres undefined), the cytotoxicity at 70.5 h is -12.7%.

With `O=C(c1cccc(CO)n1)N1CCCC1c1nc2cc(F)ccc2[nH]1` (centres undefined), the cytotoxicity at 70.5 h came out at 16.2%.

Turning to `CN(Cc1nnc(C2CC2)n1C)C(=O)c1ccnc(OC2CCC2)c1`, the cytotoxicity at 70.5 h was -10.6%.

With `CC(=O)c1nn(-c2cccc(Cl)c2)c(C)c1C(C)=O`, the cytotoxicity at 70.5 h was -12.9%.

As for `CN1CCC(N(Cc2ccncc2)Cc2nc3c(s2)CCCC3)CC1`, the cytotoxicity at 70.5 h was -11.2%.

Consider `COCCN1CCC(CNC(=O)C2(C#N)CCCC2)CC1`, for which the cytotoxicity at 70.5 h was found to be 17.6%.

On to `CCOc1cc(/C=C/c2ncc(C(=O)NC)s2)ccc1OC`, for which the cytotoxicity at 70.5 h is -13.2%.

On to `CNCc1n[nH]c(=O)n1-c1ccccc1Oc1ccccc1`, for which the cytotoxicity at 70.5 h worked out at 1.39%.

`CC(=O)N1CCn2c(nnc2C2CCCCN2Cc2ccccc2Cl)C1` (centres undefined): the cytotoxicity at 70.5 h is -3.34%.

As for `COc1cccc2[nH]c(C(=O)N3CCNCC3C(N)=O)cc12` (centres undefined), the cytotoxicity at 70.5 h worked out at 10.8%.

For the compound `CN(CC1(O)CCCN(c2ccccn2)C1)C(=O)Cc1ccsc1` (centres undefined), the cytotoxicity at 70.5 h is -9.68%.

`Cc1nccn1Cc1nnc(C2CCCN(c3ncccn3)C2)n1C` (centres undefined): the cytotoxicity at 70.5 h is 15.5%.

`CCc1cnc(N)nc1NC(C)c1ccc(C)c(C)c1` (centres undefined): the cytotoxicity at 70.5 h is -0.902%.

`Cc1cc(C)nc(C2CCCNC2)n1` (centres undefined): the cytotoxicity at 70.5 h is 17.9%.

For `CNc1snc(C)c1C(=O)N1CCCC(n2ccnc2)C1` (centres undefined), the cytotoxicity at 70.5 h is -9.44%.

As for `CN1CCCCC12Cc1ccccc1CN(C(=O)C1CCCC1)C2` (centres undefined), the cytotoxicity at 70.5 h is -6.1%.

Consider `COc1ccc(C(C(=O)O)N(C)CCN2CCCC2)cc1F` (centres undefined), for which the cytotoxicity at 70.5 h is -9.88%.

Turning to `COc1ccnc(N2CCN(C(=O)CN3CCOCC3)CC2)n1`, the cytotoxicity at 70.5 h was 8.59%.

As for `CC(C)c1cc(N2CCC3(CCN(C)C3)C2)ncn1` (centres undefined), the cytotoxicity at 70.5 h is 3.25%.

`CCCc1noc(CCC(=O)NC(C)c2nnc3n2CCCCC3)n1` (centres undefined): the cytotoxicity at 70.5 h is -9.55%.

On to `O=C1CSc2ccc(C(=O)N3CCCC(n4ccnc4)C3)cc2N1` (centres undefined), for which the cytotoxicity at 70.5 h is -1.51%.

In the case of `COCCOc1ccc(NC(=O)C2CC(=O)N(C3CC3)C2)cn1` (centres undefined), the cytotoxicity at 70.5 h was -4.78%.

With `c1cc(-c2noc(CN3CCn4c(nnc4C4CC4)C3)n2)co1`, the cytotoxicity at 70.5 h was -0.323%.

For the compound `O=C(c1cccnc1-n1cncn1)N1CCN(CC(F)(F)F)CC1`, the cytotoxicity at 70.5 h is -0.957%.

On to `CCN1CC2(CC1=O)CN(C(=O)NC(C)C)CCN(C(=O)C(C)C)C2` (centres undefined), for which the cytotoxicity at 70.5 h is -3.19%.

As to `c1cnnc(N2CCCC2CNc2cnc3ccccc3n2)c1` (centres undefined), the cytotoxicity at 70.5 h was -2.61%.

Consider `Cn1ccnc1-c1ccc(NCc2cn3c(n2)SCC3)nn1`, for which the cytotoxicity at 70.5 h is -1.93%.

For `CC1(c2ccccc2)CCCN(Cc2cncn2C2CC2)C1` (centres undefined), the cytotoxicity at 70.5 h is -8.21%.

As to `Cc1ccc2[nH]c(=O)cc(C(=O)N[C@@H]3C[C@@H](CO)N(C)C3)c2c1`, the cytotoxicity at 70.5 h is -14.7%.

Turning to `CS(=O)(=O)N1CCC(CSc2ccccc2)C1` (centres undefined), the cytotoxicity at 70.5 h is -13.4%.

Turning to `O=C(CN1CCCC1Cn1cncn1)Nc1cccnc1` (centres undefined), the cytotoxicity at 70.5 h was -7.61%.

With `Cc1ccc(CN2C[C@@H]3CN(c4ncccn4)C[C@@H]3C2)cc1`, the cytotoxicity at 70.5 h is -4.24%.

`COCCNC(=O)c1nc(-c2ccc3cc[nH]c3c2)no1`: the cytotoxicity at 70.5 h is -17.1%.

Take `CCc1csc(C2CCCN(C(=O)c3ccco3)C2)n1` (centres undefined): the cytotoxicity at 70.5 h was 17.1%.

As for `O=C(Nc1cc(Cl)ccc1N1CCCCC1)c1ccccn1`, the cytotoxicity at 70.5 h worked out at 7.77%.

Turning to `c1ncn(CC2CCCN2Cc2cn3ccsc3n2)n1` (centres undefined), the cytotoxicity at 70.5 h is -16.9%.

`COc1ccc(C(=O)N2CCO[C@H]3[C@H](OCC4CC4)CC[C@@H]32)cc1F`: the cytotoxicity at 70.5 h is -12.7%.

On to `Cc1nc(CN2CCN(C(=O)c3ccnc(N(C)C)c3)CC2)cs1`, for which the cytotoxicity at 70.5 h was -14.4%.

On to `COc1ccc([C@@H]2CN(C(=O)Cc3cccs3)C[C@H]2NC(C)=O)cc1`, for which the cytotoxicity at 70.5 h is -4.36%.

With `CN(Cc1ccc(Cl)cc1)C(=O)Nc1cnn(CC(N)=O)c1`, the cytotoxicity at 70.5 h amounted to 8.79%.

As for `O=C(Cc1ccccc1)N1CCOC(c2nc(-c3ncccn3)no2)C1` (centres undefined), the cytotoxicity at 70.5 h is -4.21%.

Regarding `Cc1nn(C(C)C)c(C)c1S(=O)(=O)Nc1ccc(C(=O)O)cc1`, the cytotoxicity at 70.5 h is -1.04%.

In the case of `CN(Cc1cccnc1)C1CC2(CCN(C(=O)c3cnccn3)CC2)C1`, the cytotoxicity at 70.5 h was -7.42%.

On to `O=C(COc1ccccc1NCc1ccoc1)N1CCOCC1`, for which the cytotoxicity at 70.5 h is -18.1%.

In the case of `CN(Cc1ccco1)C(=O)Nc1cc(C(F)(F)F)c[nH]c1=O`, the cytotoxicity at 70.5 h was -14.9%.

On to `OC(COCc1cccs1)Cn1cc(-n2cccc2)cn1` (centres undefined), for which the cytotoxicity at 70.5 h amounted to 2.56%.

On to `CCOC1COC2(CCN(Cc3ccco3)CC2)C1` (centres undefined), for which the cytotoxicity at 70.5 h is 18.2%.

As to `CCCN1CCN(Cc2cc(Cl)cc(Cl)c2)[C@H]2CS(=O)(=O)C[C@H]21`, the cytotoxicity at 70.5 h stood at 10.3%.

`CCN1CC2(CCN(CCOc3ccc(F)cc3)CC2)CC1=O`: the cytotoxicity at 70.5 h was 12.8%.

Turning to `CCOCC(=O)N(C)c1ccc(F)c(Cl)c1`, the cytotoxicity at 70.5 h was -2.55%.

As for `COc1ccc2c(c1)OC1(CCN(Cc3ccccc3C)CC1)CC2=O`, the cytotoxicity at 70.5 h is -3.9%.

For the compound `COc1ccccc1CN1CC[C@H]2C[C@@H](C(=O)N3CCCC3)O[C@H]2C1`, the cytotoxicity at 70.5 h is -7.49%.

Take `CCS(=O)(=O)N1CCc2nc(N3CCCC3)nc(N(C)C)c2CC1`: the cytotoxicity at 70.5 h was 24.9%.

Consider `CN(Cc1ccco1)C[C@@H]1OC[C@H]2CN(Cc3nccs3)CC[C@H]21`, for which the cytotoxicity at 70.5 h was 4.46%.

For `Cc1n[nH]c(C2CN(Cc3csc(C4CCCCC4)n3)CCO2)n1` (centres undefined), the cytotoxicity at 70.5 h came to 0.0665%.

For the compound `CCNC(=O)NC(=O)CNC(C)(CC)c1nccs1` (centres undefined), the cytotoxicity at 70.5 h was -1.38%.

Take `c1cncc(OCC2CC3(CCN(CC4CC4)CC3)CO2)c1` (centres undefined): the cytotoxicity at 70.5 h is -10.5%.

Take `CC(C)c1ncc(CN2CCOC(C(=O)Nc3ccccc3)C2)cn1` (centres undefined): the cytotoxicity at 70.5 h was -9.69%.

`CCOCC1CCN(C(=O)Nc2ccc3c(c2)CCCN3C)C1` (centres undefined): the cytotoxicity at 70.5 h is -10.4%.

`O=C(N1CCCC1)N1CCC2(CCCN(CCOc3ccccc3)C2)C1` (centres undefined): the cytotoxicity at 70.5 h amounted to 26.5%.

On to `CNc1nc(C2CCCN2)nc2c1CCN(S(=O)(=O)C1CCCCC1)C2` (centres undefined), for which the cytotoxicity at 70.5 h was found to be 12.5%.

Consider `COc1ccccc1N1CCN(C(=O)c2ccoc2)CC1`, for which the cytotoxicity at 70.5 h was -6.02%.

Consider `CCOC(=O)NC(CNC(=O)c1ccccn1)CC(C)C` (centres undefined), for which the cytotoxicity at 70.5 h is -4.75%.

With `COc1ccc(-n2ncc(C(C)NC3CCOCC3)c2C)cc1` (centres undefined), the cytotoxicity at 70.5 h was -1.36%.

Regarding `O=C1C[C@H]2[C@H](CCN2C(=O)c2ccno2)N1CC1CC1`, the cytotoxicity at 70.5 h was -4.81%.

Regarding `Cc1nn(C)c2c(N3CCCC3)nc(C3CC3)nc12`, the cytotoxicity at 70.5 h is -11.4%.

In the case of `CC(C)NC(=O)CCNC(=O)Nc1cccc(-c2nccn2C)c1`, the cytotoxicity at 70.5 h is -2.81%.

Take `O=C(Nc1ccnc(OC2CCOC2)c1)C1CCC1` (centres undefined): the cytotoxicity at 70.5 h was -2.33%.

Regarding `Cc1nnc(N2CCOC(Cn3cccn3)C2)c(C#N)c1C` (centres undefined), the cytotoxicity at 70.5 h was -8.57%.

With `Cc1ccc([C@@H]2CN(S(=O)(=O)c3ccccc3)C[C@H]2N(C)C)cc1`, the cytotoxicity at 70.5 h was -9.61%.

For `Cn1cnc(S(=O)(=O)NCC(O)c2ccc3c(c2)CCO3)c1` (centres undefined), the cytotoxicity at 70.5 h is -16.8%.

On to `Cc1ccccc1CNC(=O)Cc1c(C)nc2cc(=O)[nH]n2c1C`, for which the cytotoxicity at 70.5 h is -2.94%.

Regarding `CCc1ccc(C(=O)NC2CCN(c3ccn(C)n3)C2)o1` (centres undefined), the cytotoxicity at 70.5 h is -2.13%.

In the case of `Cc1noc(C(C)N2CCC(c3nc4ccccc4[nH]3)CC2)n1` (centres undefined), the cytotoxicity at 70.5 h is -3.97%.

Regarding `CCc1ccsc1C(=O)N1CCCN(Cc2nccn2CC)CC1`, the cytotoxicity at 70.5 h was 5.97%.

As to `CCn1cc(CN2CCC(CNC(C)=O)CC2)cc1C#N`, the cytotoxicity at 70.5 h stood at 0.676%.

On to `O=c1c(NCCc2ccc(O)cc2)c(NCc2ccccn2)c1=O`, for which the cytotoxicity at 70.5 h was found to be 6.43%.

For `O=C1CCCN1CC1CCCCN1C(=O)Nc1cccnc1` (centres undefined), the cytotoxicity at 70.5 h was -1.1%.

For the compound `Oc1cc(CN2CCC(O)(Cn3ccnc3)CC2)nc2ccc(F)cc12`, the cytotoxicity at 70.5 h was -7.61%.

For `Cn1ccnc1CN1CC[C@@H](NS(C)(=O)=O)[C@@H]1Cc1cccnc1`, the cytotoxicity at 70.5 h was -2.76%.

On to `CCCc1nc(C)cc(N2CCC3(CCC(=O)N(CC4CC4)C3)CC2)n1`, for which the cytotoxicity at 70.5 h is -11.1%.

Take `COCC(=O)N1CC[C@@H]2O[C@H](COCc3csc(C)n3)CC[C@@H]21`: the cytotoxicity at 70.5 h was -4.59%.
